From PMC4627656, “Combining Metabolite-Based Pharmacophores with Bayesian Machine Learning Models for Mycobacterium tuberculosis Drug Discovery” (PLoS ONE, 2015)
≈ marks a conversion by molar mass, not a printed value. Like-named read-outs stand apart in the source and are kept apart here.

How the values were obtained:
Mtb H37Rv strain = experiment: Resazurin (Alamar Blue) MIC assay against replicating Mtb; assay type: cell-based, Mycobacterium tuberculosis; conditions: lowest concentration inhibiting ≥90% growth, initial hits, quinoxaline di-N-oxides, positive controls; for MIC: Mycobacterium tuberculosis, H37RV
Mtb = test system: Mtb; set-up: method as in PMID 18502817; conditions: cited from earlier work
in vitro [1] = conditions: African green monkey
mammalian cell = conditions: cited from earlier work
[2] = mouse, microsomes, pH 7.4
Method: The test agent was incubated in duplicate with mouse liver microsomes at 37°C. The reaction contained microsomal protein in 100 mM K3PO4, 2 mM NADPH, and 3 mM MgCl2 at pH 7.4. A control was run for each test agent omitting NADPH to detect NADPH-free degradation. At t = 0 and 60 min, an aliquot was removed from each experimental and control reaction and mixed with an equal volume of ice-cold Stop Solution (methanol containing propranolol as an internal standard). Stopped reactions were incubated at least ten min at -20°C, and an additional volume of water was added. The samples were centrifuged to remove precipitated protein, and the supernatants were analyzed by LC/MS/MS to quantitate the remaining parent. Data were reported as % remaining by dividing by the time zero concentration value.

physchem = assay type: physicochemical; conditions: 37 °C, pH 7.4, aqueous buffer, kinetic from dmso stock
Method: Serial dilutions of the test agent were prepared in DMSO at 100x the final concentration. Test article solutions were diluted 100-fold into pH 7.4 phosphate-buffer saline (PBS) in a 96-well plate and mixed. After 2 h at 37°C, the presence of precipitate was detected by turbidity (absorbance at 540 nm). An absorbance value of greater than ‘mean + 3x standard deviation of the blank’ (after subtracting the background) was indicative of turbidity. For brightly colored compounds, a visual inspection of the plate was performed to verify the solubility limit determined by UV absorbance. The solubility limit was reported as the highest experimental concentration with no evidence of turbidity.

clinical strain 692 = experiment: AlamarBlue MIC (absorbance), strain panel: 692; assay type: cell-based; conditions: Mycobacterium tuberculosis, pan-susceptible
in vitro [3] = conditions: human, Caco-2
Caco-2 cell permeability = conditions: human
[4] = in vitro cultured Mtb H37Rv, read-out: Mtb MIC (H37Rv)
[5] = 3.2 μg/mL (1.3X MIC), 6 h, vs DMSO

Structure (SMILES)	MIC (Mtb H37Rv strain; [4]) [µg/mL]	CC50 at 72 h (in vitro [1]) [µg/mL]	% Compound remaining after 1h in the absence of NADPH [2] [%]	% Compound remaining after 1h in the presence of NADPH [2] [%]	solubility kinetic at 2 h (physchem) [µM]	Papp A→B at 2 h, 10 μM (in vitro [3]) [×10⁻⁶ cm/s]	Papp B→A at 2 h, 10 μM (in vitro [3]) [×10⁻⁶ cm/s]	also measured
CC(=O)c1c(C)[n+]([O-])c2ccccc2[n+]1[O-] [SRI1, 1-(3-methyl-1,4-dioxy-quinoxalin-2-yl)-ethanone]	2.5 (≈ 11.5 µM)	> 40						MIC previously identified (Mtb): 3.13 µg/mL (≈ 14.3 µM); Mammalian cell cytotoxicity previously reported (mammalian cell): no appreciable mammalian cell cytotoxicity
CCCCC(=O)c1c(C)[n+]([O-])c2ccc([N+](=O)[O-])cc2[n+]1[O-] [SRI50]	0.32 (≈ 1.05 µM)	3.4 (≈ 11.1 µM)	77.5	0.06	125 (≈ 38.2 µg/mL)			MIC (clinical strain 692): 0.16 µg/mL (≈ 0.524 µM)
CCCCC(=O)c1c(C)[n+]([O-])c2cc(Cl)c(Cl)cc2[n+]1[O-] [SRI54]	2.5 (≈ 7.59 µM)	15 (≈ 45.6 µM)	79.1	0	15.6 (≈ 5.14 µg/mL)	0.66	0.1	Genes down-regulated at minimum twofold versus control (Mtb (H37Rv); [5]): 184 genes; Genes up-regulated at least twofold versus control (Mtb (H37Rv); [5]): 131 genes; DNA repair genes down-regulated at least twofold (Mtb (H37Rv); 3.2 μg/mL, 6 h): 2/59; DNA repair genes up-regulated at least twofold (Mtb (H37Rv); 3.2 μg/mL, 6 h): 12/59; Methylcitrate cycle genes (prpC, prpD, icl1) induced more than fourfold versus control (Mtb (H37Rv); 3.2 μg/mL, 6 h): 3/13; Avg. fold induction over four replicates, hypothetical protein ORF01494 (Mtb (H37Rv); ORF01494, treated vs DMSO): 11.22; Avg. fold induction over four replicates, Rv0560c (Mtb (H37Rv); gene Rv0560c, treated vs DMSO): 38.01; Avg. fold induction over four replicates, Rv1130 (Mtb (H37Rv); gene Rv1130, treated vs DMSO): 8.92; Avg. fold induction over four replicates, Rv3074 (Mtb (H37Rv); gene Rv3074, treated vs DMSO): 8.59; Avg. fold induction over four replicates, gltA1 (Mtb (H37Rv); gene gltA1 (Rv1131), treated vs DMSO): 15.16; Hierarchical clustering of transcriptional response (Mtb (H37Rv); top 100 most up- and down-regulated genes vs deposited Mtb transcriptional data): clustered most closely to the fatty acid biosynthesis inhibitor CD117; efflux ratio at 2 h, 10 μM (Caco-2 cell permeability): 0.15
Cc1c(C(=O)C2CC2)[n+]([O-])c2cc(Cl)c(Cl)cc2[n+]1[O-] [SRI58]		> 40	110	63.6	125 (≈ 39.1 µg/mL)	2.3	0.57	MIC (Mtb H37Rv strain; read-out: Mtb MIC (H37Rv), in vitro cultured Mtb H37Rv): 1.2 µg/mL (≈ 3.83 µM); Mtb MIC (H37Rv) (Mtb H37Rv strain; in vitro cultured Mtb H37Rv): 1.25 µg/mL; efflux ratio at 2 h, 10 μM (in vitro [3]): 0.25
